From patent publication US20220204449A1, “BIASED AGONISTS OF OPIOID RECEPTORS” (ILDONG PHARMACEUTICAL CO., LTD., priority 2020, published 2022)
“Also recorded” adds a separate entry of the source. Read-outs that look alike come from different tables or passages of the source.

Assays:
Type in all cases: cell-based
[1] = molecular target: T1, human δ-opioid receptor, OPRD (Homo sapiens, UniProt P41143); assay: PathHunter β-arrestin 2 assay, OPRD cell line; conditions: for β-arrestin pathway activation / bARR2 recruitment, in words: OPRD
T1 construct: host or cells: HEK-293 overexpressing β-arrestin2 fused to a β-galactosidase fragment
Excerpt: (§1) Human embryonic kidney 293 (HEK-293) cells which transfected overexpress (3-arrestin2 fused β-galactosidase fragment were purchased from DiscoverX. Human OPRM1 gene (NM 000914.3, encoding human μ-opioid receptor, OPRM) and Human OPRD1 gene (NM 000911.3, encoding human δ-opioid receptor, OPRD) were fused to a pCMV-ProLink plasmid which contains complementary β-galactosidase fragment purchased from DiscoverX. To generate human OPRM1 or OPRD1 expression cell lines, HEK-293 cells were transfected to prepared plasmid and grown in DMEM medium with 10% fetal bovine serum, 150 μg/mL Hygromycin B and 500 μg/mL G418.
(§2) The PathHunter enzyme assay was performed to measure the agonist's capability of β-arrestin 2 pathway activation. When agonists bind to G protein-coupled receptor (GPCR), the receptor pathway is sequentially activated from G protein to β-arrestin 2 recruitment.
(§3) Because […] β-arrestin 2 and C-terminal of GPCR have a fragment of β-galactosidase, recruitment of β-arrestin 2 to GPCR forms the whole β-galactosidase. The functionality of the whole β-galactosidase is detected by chemiluminescence (FlexStation3, Molecular Devices).
(§4) cAMP and β-arrestin assays described above were conducted to decide whether candidate compounds were μ- and/or δ-opioid receptor bias agonists for the G-protein pathway. All assays produced the concentration-response curve, and the curve data was validated by a quality control factor named Z′ factor. Because half-maximal effect concentration (EC50) depends on the population of receptors, the maximal asymptote of the concentration curve was used. Efficacy data of candidates was normalized by comparison to reference agonists DAMGO and SNC80 for OPRM and OPRD.

[2] = molecular target: T2, human μ-opioid receptor, OPRM (Homo sapiens, UniProt P35372); assay: PathHunter β-arrestin 2 assay, OPRM cell line; conditions: for OPRM β-ARR2 Emax (%): Example 3, Tables 5-7; for β-arrestin pathway activation / bARR2 recruitment, in words: OPRM
T2 construct: host or cells: HEK-293 overexpressing β-arrestin2 fused to a β-galactosidase fragment
Excerpt: as §1, §2, §3, §4

[3] = molecular target: T2, human μ-opioid receptor, OPRM; assay: Dominant assay: cAMP assay with/without irreversible antagonist β-FNA, OPRM cell line; conditions: for maximal response on decreasing receptor population (dominant tendency), in words: OPRM cell lines, β-FNA
Excerpt: (§5) To confirm the agonist's efficacy in a nature-like system, we need inactivation of target receptors on the cell membrane. Most cell lines have an abundant target receptor population (also known as spare receptors). Therefore, agonists have more opportunity to constitute agonist-receptor conformation. In this environment, not only full agonists but also partial agonists can reach maximal response.
(§6) If the partial agonist is selected as a full agonist, translational in vivo research will likely fail.
(§7) Non-competitive, irreversible antagonists can be applicable to judge the pharmacological character of agonists because they permanently decrease the receptor population in the cell line system. β-FNA or β-CNA is used as a non-competitive and irreversible antagonist for OPRM, OPRD. Before cAMP assay, cells were incubated with β-FNA or β-CNA for 40 minutes. Afterwards, the procedure is the same.
(§8) If a partial agonist compound acts as a full agonist due to receptor population (pseudo full agonist), it cannot sustain maximal response with reduced receptor population. However, a full agonist compound maintains their maximal response even though increased EC50.

[4] = molecular target: T1, human δ-opioid receptor, OPRD; assay: Dominant assay: cAMP assay with/without irreversible antagonist β-CNA, OPRD cell line; conditions: for maximal response on decreasing receptor population (dominant tendency), in words: OPRD cell lines, β-CNA
Excerpt: as §5, §6, §7, §8

[5] = addition of β-FNA, Example 3, Tables 5-7, read-out: OPRM Gi β-FNA (+) EC50
[6] = addition of β-FNA, Example 3, Tables 5-7, read-out: OPRM Gi β-FNA (+) Emax (%)
[7] = addition of β-FNA, repeated dominant assay, Example 4, Tables 8-10
[8] = addition of β-FNA, repeated dominant assay, Example 4, Tables 8-10, read-out: OPRM Gi β-FNA (+) EC50
[9] = no addition of β-FNA, Example 3, Tables 5-7, read-out: OPRM Gi β-FNA (−) EC50
[10] = no addition of β-FNA, Example 3, Tables 5-7, read-out: OPRM Gi β-FNA (−) Emax (%)
[11] = no addition of β-FNA, repeated dominant assay, Example 4, Tables 8-10, read-out: OPRM Gi β-FNA (−) EC50
[12] = no addition of β-FNA, repeated dominant assay, Example 4, Tables 8-10, read-out: OPRM Gi β-FNA (−) Emax (%)
[13] = addition of β-CNA, Example 3, Tables 5-7
[14] = addition of β-CNA, repeated dominant assay, Example 4, Tables 8-10
[15] = addition of β-CNA, repeated dominant assay, Example 4, Tables 8-10, read-out: OPRD Gi β-CNA (+) EC50
[16] = no addition of β-CNA, Example 3, Tables 5-7
[17] = no addition of β-CNA, repeated dominant assay, Example 4, Tables 8-10, read-out: OPRD Gi β-CNA (−) EC50
[18] = no addition of β-CNA, repeated dominant assay, Example 4, Tables 8-10, read-out: OPRD Gi β-CNA (−) Emax (%)
[19] = addition of β-FNA, Example 3, Tables 5-7
[20] = no addition of β-FNA, Example 3, Tables 5-7
[21] = no addition of β-FNA, repeated dominant assay, Example 4, Tables 8-10
[22] = addition of β-CNA, Example 3, Tables 5-7, read-out: OPRD Gi β-CNA (+) EC50
[23] = no addition of β-CNA, Example 3, Tables 5-7, read-out: OPRD Gi β-CNA (−) EC50
[24] = no addition of β-CNA, repeated dominant assay, Example 4, Tables 8-10

T1 sequence (P41143 whole entry, the tested form may be a part): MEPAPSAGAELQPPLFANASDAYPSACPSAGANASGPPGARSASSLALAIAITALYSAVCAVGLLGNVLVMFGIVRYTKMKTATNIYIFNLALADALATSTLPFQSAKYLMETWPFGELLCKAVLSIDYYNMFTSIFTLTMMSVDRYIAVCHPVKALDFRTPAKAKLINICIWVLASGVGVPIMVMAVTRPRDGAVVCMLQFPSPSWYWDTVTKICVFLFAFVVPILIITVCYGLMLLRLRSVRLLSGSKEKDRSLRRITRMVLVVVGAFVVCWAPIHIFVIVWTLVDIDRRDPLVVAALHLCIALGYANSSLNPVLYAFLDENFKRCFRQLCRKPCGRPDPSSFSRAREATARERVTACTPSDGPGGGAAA
T2 sequence (P35372 whole entry, the tested form may be a part): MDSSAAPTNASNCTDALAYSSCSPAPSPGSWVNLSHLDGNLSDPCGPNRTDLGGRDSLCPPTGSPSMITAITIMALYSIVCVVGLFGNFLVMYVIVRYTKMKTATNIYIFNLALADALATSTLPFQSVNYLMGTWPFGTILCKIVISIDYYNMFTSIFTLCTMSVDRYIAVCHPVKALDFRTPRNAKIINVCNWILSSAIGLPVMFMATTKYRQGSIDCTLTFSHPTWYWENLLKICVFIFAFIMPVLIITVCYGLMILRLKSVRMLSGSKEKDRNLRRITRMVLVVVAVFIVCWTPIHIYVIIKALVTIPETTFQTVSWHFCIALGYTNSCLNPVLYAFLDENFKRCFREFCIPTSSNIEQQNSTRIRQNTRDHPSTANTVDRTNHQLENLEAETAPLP

Structure (SMILES)	OPRD β-ARR2 Emax (%) ([1]; Example 3, Tables 5-7)	β-arrestin pathway activation / bARR2 recruitment, in words [1]	OPRM β-ARR2 Emax (%) [2] [%]	β-arrestin pathway activation / bARR2 recruitment, in words [2]	maximal response on decreasing receptor population (dominant tendency), in words [3]	EC50 [3, 5] [µM]	Emax [3, 6] [%]	OPRM Gi β-FNA (+) Emax (%) [3, 7] [%]	EC50 [3, 8] [µM]	EC50 [3, 9] [µM]	Emax [3, 10] [%]	EC50 [3, 11] [µM]	OPRD Gi β-CNA (+) Emax (%) [4, 13] [%]	OPRD Gi β-CNA (+) Emax (%) [4, 14] [%]	EC50 [4, 15] [µM]	OPRD Gi β-CNA (−) Emax (%) [4, 16] [%]	EC50 [4, 17] [µM]	maximal response on decreasing receptor population (dominant tendency), in words [4]	EC50 [4, 22] [µM]	EC50 [4, 23] [µM]	other results
CN(C)C(CNC(=O)Cc1ccc2c(c1)OCCO2)c1ccccc1 (single isomer, unassigned) [Compound 4]	2.8	lower bARR2 recruitment as compared to morphine	4.8	lower bARR2 recruitment as compared to morphine	better efficacy than racemic compound 1	10.9	24.6	45.02	12	20	82.8	9.4	17.23	108.1	10	20.59	8.65				Emax [3, 12]: 100%; Emax [4, 18]: 100%
CN(C)C(CNC(=O)Cc1ccc2c(c1)OCCO2)c1ccccc1 (single isomer, unassigned) [Compound 5]	5.7		23.1		superior efficacy-dominant properties	2.45		77.98	4.07	0.292		1.65	79.38	65.27	8.79	111	7.33	superior efficacy-dominant properties	6.1	6.67	OPRM Gi β-FNA (+) Emax (%) [3, 19]: 21.91%; OPRM Gi β-FNA (−) Emax (%) [3, 20]: 102%; OPRM Gi β-FNA (−) Emax (%) [3, 21]: 101.9%; OPRD Gi β-CNA (−) Emax (%) [4, 24]: 100%
CN1CCc2cc(C(CNC(=O)Nc3ccc(F)cc3)N(C)C)ccc21 (single isomer, unassigned) [Compound 6]		lower bARR2 recruitment as compared to morphine	8.5	lower bARR2 recruitment as compared to morphine	resistant to decreasing spare receptors; also recorded: showed efficacy dominance on both types of opioid receptors; also recorded: resistant to decreasing spare receptor-induced tendency; also recorded: maintained a higher maximal response as compared to compound 2	2.48	77		8.49	0.519	106	1.86			13.5	128.1	4.32	resistant to decreasing spare receptors; also recorded: showed efficacy dominance on both types of opioid receptors; also recorded: resistant to decreasing spare receptor-induced tendency; also recorded: maintained a higher maximal response as compared to compound 2	48.3	8.91	Emax ([1]; Example 3, Tables 5-7, read-out: OPRD β-ARR2 Emax (%)): 10.5%; Emax ([3]; addition of β-FNA, repeated dominant assay, Example 4, Tables 8-10, read-out: OPRM Gi β-FNA (+) Emax (%)): 90.1%; Emax [3, 12]: 100%; Emax ([4]; addition of β-CNA, Example 3, Tables 5-7, read-out: OPRD Gi β-CNA (+) Emax (%)): 119%; Emax ([4]; addition of β-CNA, repeated dominant assay, Example 4, Tables 8-10, read-out: OPRD Gi β-CNA (+) Emax (%)): 81.4%; Emax [4, 18]: 102%
CN1CCc2cc(C(CNC(=O)Nc3ccc(F)cc3)N(C)C)ccc21 (single isomer, unassigned) [Compound 7]	6.4		22.0		resistant to decreasing spare receptors; also recorded: showed efficacy dominance on both types of opioid receptors; also recorded: resistant to decreasing spare receptor-induced tendency; also recorded: maintained a higher maximal response as compared to compound 2	0.728		90.07	6.95	0.0416		2.31	100.2	81.99	3.44	98.3	1.05	resistant to decreasing spare receptors; also recorded: showed efficacy dominance on both types of opioid receptors; also recorded: resistant to decreasing spare receptor-induced tendency; also recorded: maintained a higher maximal response as compared to compound 2	4.9	0.517	OPRM Gi β-FNA (+) Emax (%) [3, 19]: 85.93%; OPRM Gi β-FNA (−) Emax (%) [3, 20]: 95.81%; OPRM Gi β-FNA (−) Emax (%) [3, 21]: 100.9%; OPRD Gi β-CNA (−) Emax (%) [4, 24]: 100.2%
